Laboratory results taken from patent publication USRE33897E, “Synthetic polypeptides and antibodies related to Epstein-Barr virus nuclear antigen” (Scripps Clinic and Research Foundation, priority 1989, dated 1992).
“Also recorded” adds a separate entry of the source. Residues, ends and D or L forms follow the SMILES beside them.

How the values were obtained:
anti-EBNA antibodies = assay: ELISA with polypeptide as solid phase antigen, detecting anti-polypeptide antibodies in sera; format: binding, human; conditions: for Average titer of Progressive Systemic Schlerosis (PSS) patients to polypeptide compared with normals: high and low serum dilutions; for Reaction of VCA- sera with polypeptide: panel of 19 VCA- sera; for Reactivity of sera of EBV non-immune donors to polypeptide: panel of 27 EBV non-immune (VCA-) donors; for Number of 91 anti-EBNA positive (ACIF) sera positive against polypeptide: sera at 1:20 dilution; for Antibodies binding to polypeptide before and after EBV-induced infectious mononucleosis: sera of two subjects; for Reaction of sera of clinically normal VCA+ individuals with polypeptide: two serum dilutions
Method: A solution containing a substrate for the enzyme label such as hydrogen peroxide for peroxidase and a color-forming dye precursor such as o-phenylenediamine, or p-nitrophenyl phosphate for alkaline phosphatase is thereafter admixed with the solid phase.
(§1) Anti-peptide antibody binding and inhibition studies were carried out by an enzyme-linked immunosorbent assay (ELISA) as described below.
(§2) Briefly, microtiter wells (Costar, #3590, Cambridge, Mass.) were coated with individual polypeptides as antigens by adding 100 microliters (ul) of BBS [10 millimoler (mM) sodium borate (pH 8.3), 150 mM NaCl] containing polypeptide at a concentration of 10 micrograms per milliliter (ug/ml). Contact between the wells and antigen-containing solution was maintained for a predetermined time, typically 15 minutes, and at 20 degrees C., to form an antigen-coated solid phase. The solid and liquid phases were separated and the wells were washed three times with BBS.
Non-specific binding sites were blocked by admixing 200 microliters of 1% bovine serum albumin (BSA) in each well to form another solid-liquid phase admixture, and maintaining that solid-liquid phase admixture for 30 minutes, at 20 degrees C. The phases were separated and excess, unbound BSA was removed by washinq three times with BBS.
[…] Contact between the diluted sera and the antigen-coated solid phase was maintained for a predetermined time such as 1 hour, and at 20 degrees C., for an immunoreactant to form. The solid and liquid phases were separated, and the solid phase; i.e., antigen-coated, immunoreactant-containing wells, was then washed three times with BBS.
The antibodies in human sera that immunoreacted with an adsored polypeptide were detected using an indicating means comprising alkaline phosphatase-conjugated goat anti-human Ig antibody (Tago, Burlington, CA). The antibodies in rabbit sera that immunoreacted with an adsorbed polypeptide were detected using an indicating means comprising alkaline phosphatase-conjugated goat anti-rabbit Ig antibody (Kirkegard & Perry Laboratories, Inc., Gaithersburg, Md.). In either instance, 100 microliters of the indicating antibody diluted 1:300 in BBS were added per well to form a further solid-liquid phase composition. This solidliquid phase composition was maintained for a predetermined time, one hour, for the formation of a reaction product between the human antibodies bound to the solid phase and the indicating means, and at 20 degrees C.

EBNA = assay: Immunoblotting of whole cell extracts with rabbit anti-polypeptide antisera; format: binding, Epstein-Barr virus; conditions: for Inhibition of recognition of EBNA by anti-P62 serum: anti-P62 serum 1:10 incubated with 40 ug/ml polypeptide for one hour
Method: Exemplary receptor molecules containing antibody combining sites of this invention raised in rabbits to the polypeptides shown in Table 1 were studied using the immunoblotting procedures of Towbin, et. al., Proc. Natl. Acad. Sci., U.S.A., 76:4350-4354 (1979) and Billings, et. al., Proc. Natl. Acad. Sci., U.S.A., 80:7104-7108 (1983). Further details are provided in the Materials and Methods section (II).
Extracts of EBNA producing and non-producing (control) cells were prepared to determine if receptor molecules of this invention were useful for diagnosing EBNA expression. Cells from cultures described hereinabove were washed in phosphate-buffered saline (PBS; 150 mM NaCl, 10 mM sodium phosphate, pH 7.4) containing 0.2 mM phenylmethylsulfonyl fluoride, swollen for 5 minutes in reticulocyte standard buffer (RSB; 10 mM NaCl, 10 mM Tris-HCl, pH 7.4, 1.5 mM MgCl2, 0.2 mM phenylmethylsulfonyl fluoride), and lysed by sonication in 3-5 volumes of RBS adjusted to 0.2-0.35 molar (M) NaCl. After 30 minutes on ice, the sonicate was centrifuged at 10,000×g for 15 minutes to remove cellular debris.
Cell extracts obtained above were assayed for EBNA using human sera known to contain anti-EBNA antibodies or exemplary receptor molecules of this invention. Tne extracts were either concentrated by precipitation with 2 volumes of ethanol at -20 degrees C. for about 18 hours, and were then dissolved in sample buffer [SB; 10% glycerol, 2% 2-mercaptoethanol, 1% sodium dodecyl sulfate (SDS), 0.002% bromphenol blue, 40 mM Tris-HCl (pH 7.4)] or diluted 1:6 in sample buffer for SDS-polyacrylamide gel electrophoresis (SDS-PAGE). 7.5% Polyacrylamide gels were cast and run according to the procedure of Laemmli, Nature, […] (1970), applying 50 to 200 micorgrams of total protein per lane. […]
Anti-peptide antibodies bound to EBNA protein were detected by reacting the blots with an indicating means. […]

[1] = Circular dichroism spectroscopy of polypeptides in phosphate buffered saline; format: physicochemical; conditions: 1 mg/ml
Method: The conformational properties of the polypeptides were investigated to elucidate any secondary structure that might be necessary for polypeptide immunoreaction with human anti-EBNA antibodies. The polypeptides were dissolved at a concentration of 1 mg/ml in phosphate-buffered saline (PBS). Spectra were taken using 1 ml samples in a Cary 61 spectropolarimeter (Cary Instruments, Applied Physics Corp., Monrovia, Calif.) interfaced and automated with a Digital Equipment Corporation 11/02 computer (Digital Equipment Corporation, Maynard, Mass.).

[2] = test system: rabbit anti-polypeptide antibody to polypeptide P62; assay: Competition ELISA: rabbit anti-polypeptide P62 antibody binding to solid phase P62; conditions: antibody first incubated with competing polypeptide
Method: as §1, §2
Non-specific binding sites were blocked by admixing 200 microliters of 1% bovine serum albumin (BSA) in each well to form another solid-liquid phase admixture, and maintaining that solid-liquid phase admixture for 30 minutes, at 20 degrees C. […]
The antibodies in human sera that immunoreacted with an adsored polypeptide were detected using an indicating means comprising alkaline phosphatase-conjugated goat anti-human Ig antibody (Tago, Burlington, CA). The antibodies in rabbit sera that immunoreacted with an adsorbed polypeptide were detected using an indicating means comprising alkaline phosphatase-conjugated goat anti-rabbit Ig antibody (Kirkegard & Perry Laboratories, Inc., Gaithersburg, Md.). […]

[3] = serum MV post-mononucleosis, dilution 1:20
[4] = serum MV pre-mononucleosis, dilution 1:20
[5] = serum SB post-mononucleosis, dilution 1:20
[6] = serum SB pre-mononucleosis, dilution 1:20
[7] = serum VCA + Normal 1, dilution 1:20
[8] = serum VCA + Normal 2, dilution 1:20

SMILES	OD405 × 10^3 obtained with patient antibodies to polypeptide, average ± one standard deviation (anti-EBNA antibodies; VCA- Normals (n = 27), dilution 1:20) [OD405 × 10^3]	Average titer of Progressive Systemic Schlerosis (PSS) patients to polypeptide compared with normals (anti-EBNA antibodies)	Reaction of VCA- sera with polypeptide (anti-EBNA antibodies)	Reactivity of sera of EBV non-immune donors to polypeptide (anti-EBNA antibodies)	Number of 91 anti-EBNA positive (ACIF) sera positive against polypeptide (anti-EBNA antibodies)	Antibodies binding to polypeptide before and after EBV-induced infectious mononucleosis (anti-EBNA antibodies)	OD405 × 10^3 obtained with patient antibodies to polypeptide (anti-EBNA antibodies; [3]) [OD405 × 10^3]	OD405 × 10^3 obtained with patient antibodies to polypeptide (anti-EBNA antibodies; [4]) [OD405 × 10^3]	OD405 × 10^3 obtained with patient antibodies to polypeptide (anti-EBNA antibodies; [5]) [OD405 × 10^3]	OD405 × 10^3 obtained with patient antibodies to polypeptide (anti-EBNA antibodies; [6]) [OD405 × 10^3]	OD405 × 10^3 obtained with patient antibodies to polypeptide (anti-EBNA antibodies; [7]) [OD405 × 10^3]	OD405 × 10^3 obtained with patient antibodies to polypeptide (anti-EBNA antibodies; [8]) [OD405 × 10^3]	Reaction of sera of clinically normal VCA+ individuals with polypeptide (anti-EBNA antibodies)	Inhibition of recognition of EBNA by anti-P60 serum (EBNA; anti-P60 serum 1:50 incubated with 40 ug/ml polypeptide for one hour)	Inhibition of recognition of EBNA by anti-P62 serum (EBNA)	Conformation indicated by circular dichroism spectrum [1]	Time course of anti-P62 antibodies after onset of infectious mononucleosis versus ACIF anti-EBNA titer (anti-EBNA antibodies; one-half of 8 students (e.g. patient 15))	Time of detection of antibodies against polypeptide after onset of infectious mononucleosis (anti-EBNA antibodies; other half of 8 students (e.g. patients 14 and 2))	Number of 91 EBNA positive sera immunoreacting with polypeptide (anti-EBNA antibodies; sera at 1:320 dilution)	Inhibition of binding of anti-polypeptide P62 to solid phase polypeptide P62 [2]
C[C@H](NC(=O)CNC(=O)CNC(=O)[C@H](C)NC(=O)CNC(=O)[C@H](C)NC(=O)CNC(=O)CNC(=O)CN)C(=O)NCC(=O)N[C@@H](C)C(=O)NCC(=O)NCC(=O)NCC(=O)NCC(=O)N[C@@H](CCCNC(=N)N)C(=O)O [Polypeptide P60, H--Gly--Gly--Gly--Ala--Gly--Ala--Gly--Gly--Ala--Gly--Ala--Gly--Gly--Gly--Gly--Arg--OH] (H-GGGAGAGGAGAGGGGR-OH)	45 ± 18	relatively higher average titer	None of the VCA- sera were found to react positively	None of tne sera displayed significant reactivity	91	absent before infection, but appeared afterward	162	72	115	51	154	145	all of the VCA+ indiviuals were positive	innibited	inhibited	very similar spectra				
C[C@H](N)C(=O)NCC(=O)N[C@@H](C)C(=O)NCC(=O)NCC(=O)NCC(=O)N[C@@H](C)C(=O)NCC(=O)NCC(=O)N[C@@H](C)C(=O)NCC(=O)N[C@@H](C)C(=O)NCC(=O)NCC(=O)NCC(=O)N[C@@H](C)C(=O)NCC(=O)NCC(=O)N[C@@H](C)C(=O)NCC(=O)O [Polypeptide P62, H-Ala--Gly--Ala--Gly--Gly--Gly--Ala--Gly--Gly--Ala--Gly--Ala--Gly--Gly--Gly--Ala--Gly--Gly--Ala--Gly--OH] (H-AGAGGGAGGAGAGGGAGGAG-OH)		relatively higher average titer	None of the VCA- sera were found to react positively	None of tne sera displayed significant reactivity	91	absent before infection, but appeared afterward	631	77	514	13	958	819	all of the VCA+ indiviuals were positive		inhibited	relatively stable secondary structure	rose in parallel with the corresponding anti-EBNA titer	detected in the first month after the onset of symptoms	83	
CSCC[C@H](NC(=O)[C@@H]1CCCN1C(=O)[C@H](CCCNC(=N)N)NC(=O)[C@H](CCCCN)NC(=O)[C@H](CCC(=O)O)NC(=O)CNC(=O)[C@H](CCCNC(=N)N)NC(=O)CNC(=O)[C@H](CCCNC(=N)N)NC(=O)CNC(=O)[C@H](CCCNC(=N)N)NC(=O)CNC(=O)[C@H](CCCNC(=N)N)NC(=O)[C@H](C)NC(=O)[C@@H](N)CCCNC(=N)N)C(=O)O [Polypeptide P89, H--Arg--Ala--Arg--Gly--Arg--Gly--Arg--Gly--Arg--Gly--Glu--Lys--Arg--Pro--Met--OH] (H-RARGRGRGRGEKRPM-OH)						no antibodies were produced	25	29	23	9	23	16								did not significantly crossreact; also recorded: did not inhibit
